ChEMBL document CHEMBL4270672, “Synthesis and Biological Evaluation of Fused Tricyclic Heterocycle Piperazine (Piperidine) Derivatives As Potential Multireceptor Atypical Antipsychotics” (J Med Chem, 2018)
The source made the active and inactive calls. No cut-off for these calls is given here.

How the values were obtained:
[1] = Displacement of [3H] nisoxetine from NET in rat hippocampal membrane homogenates after 8 hrs by liquid scintillation counting; assay type: cell membranes
[2] = biological target: 5-hydroxytryptamine receptor 6 (Homo sapiens, UniProt P50406); assay: biochemical
5-hydroxytryptamine receptor 6, sequence (P50406 whole entry): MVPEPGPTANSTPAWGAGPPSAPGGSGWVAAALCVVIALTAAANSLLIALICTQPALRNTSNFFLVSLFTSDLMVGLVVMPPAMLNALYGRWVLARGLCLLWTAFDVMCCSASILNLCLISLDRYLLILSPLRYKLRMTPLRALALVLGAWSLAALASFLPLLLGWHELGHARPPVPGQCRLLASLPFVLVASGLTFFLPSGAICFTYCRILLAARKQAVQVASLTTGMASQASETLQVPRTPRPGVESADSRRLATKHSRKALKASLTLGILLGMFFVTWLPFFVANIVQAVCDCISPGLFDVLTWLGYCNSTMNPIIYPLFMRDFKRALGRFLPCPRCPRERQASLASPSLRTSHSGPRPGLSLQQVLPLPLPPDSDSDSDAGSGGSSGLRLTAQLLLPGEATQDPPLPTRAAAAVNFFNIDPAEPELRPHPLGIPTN

[3] = biological target: Voltage-gated inwardly rectifying potassium channel KCNH2 (Homo sapiens, UniProt Q12809)
Description: Inhibition of human ERG expressed in HEK293 cells at -50 mV holding potential by patch clamp assay

[4] = biological target: 5-hydroxytryptamine receptor 2A (Homo sapiens, UniProt P28223); assay: Antagonist activity at serotonin 5-HT2A receptor (unknown origin) expressed in HEK293 cells assessed as inhibition of serotonin-induced calcium flux at 10 uM after 15 mins by calcium 4-dye based FLIPR assay relative to control; assay type: functional, cell-based
5-hydroxytryptamine receptor 2A (Homo sapiens, UniProt P28223), sequence (P28223 whole entry): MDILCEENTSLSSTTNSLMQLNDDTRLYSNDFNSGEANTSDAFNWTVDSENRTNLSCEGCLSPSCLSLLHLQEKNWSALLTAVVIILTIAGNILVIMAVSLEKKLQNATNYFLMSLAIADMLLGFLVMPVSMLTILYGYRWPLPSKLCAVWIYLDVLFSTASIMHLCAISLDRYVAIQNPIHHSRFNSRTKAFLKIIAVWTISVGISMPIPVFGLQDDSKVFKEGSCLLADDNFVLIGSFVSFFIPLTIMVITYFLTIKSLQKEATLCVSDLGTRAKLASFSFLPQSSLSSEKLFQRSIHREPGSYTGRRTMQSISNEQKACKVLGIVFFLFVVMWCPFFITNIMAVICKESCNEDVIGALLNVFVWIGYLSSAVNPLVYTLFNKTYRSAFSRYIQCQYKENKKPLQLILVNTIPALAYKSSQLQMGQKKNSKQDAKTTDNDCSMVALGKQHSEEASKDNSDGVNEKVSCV

[5] = Half life in Sprague-Dawley rat at 1 mg/kg, iv by LC-MS/MS analysis; assay type: ADME, organism-based; details: in vivo
[6] = Therapeutic index, ratio of ED50 for catalepsy in Kunming mouse to ED50 for apomorphine-induced climbing in Kunming mouse; assay type: toxicity, organism-based; details: in vivo, read-out: Ratio ED50
[7] = biological target: D(2) dopamine receptor (Homo sapiens, UniProt P14416)
D(2) dopamine receptor (Homo sapiens, UniProt P14416), sequence (P14416 whole entry): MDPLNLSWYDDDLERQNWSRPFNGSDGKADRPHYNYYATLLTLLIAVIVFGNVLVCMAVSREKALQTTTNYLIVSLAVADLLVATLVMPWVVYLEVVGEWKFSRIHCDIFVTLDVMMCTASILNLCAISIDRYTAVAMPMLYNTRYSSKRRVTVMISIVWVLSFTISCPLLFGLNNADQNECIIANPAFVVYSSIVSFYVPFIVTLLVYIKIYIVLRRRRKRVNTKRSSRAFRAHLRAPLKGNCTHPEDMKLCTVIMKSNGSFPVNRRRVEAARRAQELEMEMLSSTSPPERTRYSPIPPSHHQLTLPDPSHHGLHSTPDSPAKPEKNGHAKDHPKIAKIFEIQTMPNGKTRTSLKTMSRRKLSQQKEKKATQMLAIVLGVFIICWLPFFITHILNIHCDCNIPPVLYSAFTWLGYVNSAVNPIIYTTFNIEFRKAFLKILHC

[8] = test system: Mus musculus; details: Kunming
Description: (§1) Antipsychotic activity in po dosed Kunming mouse assessed as reduction in apomorphine-induced climbing pretreated for 30 mins followed by apomorphine injection measured at 10 to 30 mins post dose

[9] = biological target: Sigma non-opioid intracellular receptor 1 (Cavia porcellus, UniProt Q60492); assay: Displacement of [3H]-(+)-pentazocine from sigma1 receptor in guinea pig brain membranes after 180 mins by liquid scintillation counting; assay type: cell membranes, Membrane
Sigma non-opioid intracellular receptor 1, sequence (Q60492 whole entry): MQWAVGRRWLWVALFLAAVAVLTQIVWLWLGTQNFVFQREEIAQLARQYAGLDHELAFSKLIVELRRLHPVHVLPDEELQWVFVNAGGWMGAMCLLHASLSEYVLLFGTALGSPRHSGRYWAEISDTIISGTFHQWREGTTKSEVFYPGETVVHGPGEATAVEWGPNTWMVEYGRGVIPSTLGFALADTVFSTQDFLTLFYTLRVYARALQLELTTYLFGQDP

[10] = species on record: Mus musculus; assay: animal or person; details: Kunming, po
Description: Antipsychotic activity in po dosed Kunming mouse assessed as reduction in MK-801-induced hyperactivity pretreated for 60 mins followed by MK-801 challenge measured for 90 mins

[11] = species on record: Mus musculus; assay: animal or person; details: Kunming, po; remark: listed apart in the source
Description: as §1

[12] = AUC (0 to t) in Sprague-Dawley rat at 1 mg/kg, iv by LC-MS/MS analysis; assay type: ADME, organism-based; details: in vivo
[13] = Cmax in Sprague-Dawley rat at 10 mg/kg, po by LC-MS/MS analysis; assay type: ADME, organism-based; parameters: dose 10 mg/kg, route oral; details: in vivo
[14] = Therapeutic index, ratio of ED50 for catalepsy in Kunming mouse to ED50 for MK-801-induced hyperactivity in Kunming mouse; assay type: toxicity, organism-based; details: in vivo, read-out: Ratio ED50
[15] = biological target: D(3) dopamine receptor (Homo sapiens, UniProt P35462)
D(3) dopamine receptor (Homo sapiens, UniProt P35462), sequence (P35462 whole entry): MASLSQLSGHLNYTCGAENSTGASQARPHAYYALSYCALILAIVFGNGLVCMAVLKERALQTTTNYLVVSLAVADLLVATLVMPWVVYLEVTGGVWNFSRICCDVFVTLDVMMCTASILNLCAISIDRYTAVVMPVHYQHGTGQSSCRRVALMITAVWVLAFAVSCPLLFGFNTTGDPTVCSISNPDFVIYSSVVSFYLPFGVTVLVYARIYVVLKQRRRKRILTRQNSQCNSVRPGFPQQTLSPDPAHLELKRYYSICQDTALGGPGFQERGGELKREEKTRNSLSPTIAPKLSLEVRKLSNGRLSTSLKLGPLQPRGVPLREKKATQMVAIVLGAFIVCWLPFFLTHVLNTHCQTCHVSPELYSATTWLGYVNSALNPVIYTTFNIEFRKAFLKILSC

[16] = biological target: D(1A) dopamine receptor (Homo sapiens, UniProt P21728); assay: Antagonist activity at human dopamine D1 receptor expressed in HEK293T cells assessed as inhibition of dopamine-induced cAMP accumulation preincubated for 15 mins followed by dopamine induction and measured after 30 mins by HTRF assay; assay type: functional, cell-based
D(1A) dopamine receptor (Homo sapiens, UniProt P21728), sequence (P21728 whole entry): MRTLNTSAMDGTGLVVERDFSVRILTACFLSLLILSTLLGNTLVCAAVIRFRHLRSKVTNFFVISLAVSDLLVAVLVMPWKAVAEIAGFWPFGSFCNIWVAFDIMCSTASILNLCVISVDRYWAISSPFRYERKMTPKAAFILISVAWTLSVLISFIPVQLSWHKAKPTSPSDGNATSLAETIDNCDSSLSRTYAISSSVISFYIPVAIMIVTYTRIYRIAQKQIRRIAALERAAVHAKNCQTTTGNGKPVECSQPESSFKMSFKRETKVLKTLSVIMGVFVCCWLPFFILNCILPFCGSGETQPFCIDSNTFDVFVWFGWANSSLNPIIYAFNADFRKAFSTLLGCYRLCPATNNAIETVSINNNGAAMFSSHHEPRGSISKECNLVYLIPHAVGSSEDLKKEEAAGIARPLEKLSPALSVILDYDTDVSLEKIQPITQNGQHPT

[17] = biological target: 5-hydroxytryptamine receptor 2A (Rattus norvegicus, UniProt P14842); assay: Displacement of [3H]-ketanserine from serotonin 5-HT2A receptor in rat brain cortex homogenates incubated for 30 mins by liquid scintillation counting
[18] = biological target: D(3) dopamine receptor (Rattus norvegicus, UniProt P19020)
[19] = test system: Rattus norvegicus; assay: Cognitive enhancing effect in Sprague-Dawley rat assessed as increase in total exploration time for novel objects in retention trial at 0.1 to 0.3 mg/kg, po administered 1 hr prior to acquisition trial measured 24 hrs post acquisition trial for 5 mins by novel object recognition test; assay type: functional, organism-based
[20] = biological target: T1, 5-hydroxytryptamine receptor 1A (Rattus norvegicus, UniProt P19327)
T1 sequence (P19327 whole entry): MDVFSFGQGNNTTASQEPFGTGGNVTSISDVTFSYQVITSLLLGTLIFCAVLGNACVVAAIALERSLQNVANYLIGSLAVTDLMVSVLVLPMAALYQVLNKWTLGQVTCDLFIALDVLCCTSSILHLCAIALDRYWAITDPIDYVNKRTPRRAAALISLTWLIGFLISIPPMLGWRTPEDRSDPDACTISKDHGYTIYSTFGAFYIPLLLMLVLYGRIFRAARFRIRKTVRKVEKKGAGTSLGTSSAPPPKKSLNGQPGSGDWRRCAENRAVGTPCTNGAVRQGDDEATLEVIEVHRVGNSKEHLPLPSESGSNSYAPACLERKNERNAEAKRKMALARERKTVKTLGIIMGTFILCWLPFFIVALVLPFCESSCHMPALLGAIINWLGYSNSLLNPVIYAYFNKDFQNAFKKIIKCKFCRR

[21] = biological target: D(2) dopamine receptor (Rattus norvegicus, UniProt P61169)
D(2) dopamine receptor (Rattus norvegicus, UniProt P61169), sequence (P61169 whole entry): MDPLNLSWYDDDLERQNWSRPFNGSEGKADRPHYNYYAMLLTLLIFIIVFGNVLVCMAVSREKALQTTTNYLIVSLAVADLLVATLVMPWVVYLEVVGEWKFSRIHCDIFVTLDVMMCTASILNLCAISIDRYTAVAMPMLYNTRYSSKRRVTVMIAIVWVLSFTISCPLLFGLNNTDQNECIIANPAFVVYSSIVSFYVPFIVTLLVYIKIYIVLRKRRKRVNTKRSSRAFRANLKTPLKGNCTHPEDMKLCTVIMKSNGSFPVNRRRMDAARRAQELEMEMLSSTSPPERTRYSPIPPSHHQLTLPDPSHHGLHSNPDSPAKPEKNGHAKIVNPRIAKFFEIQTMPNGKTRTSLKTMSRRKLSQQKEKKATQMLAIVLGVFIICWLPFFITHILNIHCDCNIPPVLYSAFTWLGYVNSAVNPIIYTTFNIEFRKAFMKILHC

[22] = biological target: Muscarinic acetylcholine receptor M1 (Homo sapiens, UniProt P11229); assay: Displacement of [3H]-QNB from M1 receptor (unknown origin) in cell membrane homogenates after 30 mins by liquid scintillation counting
Muscarinic acetylcholine receptor M1, sequence (P11229 whole entry): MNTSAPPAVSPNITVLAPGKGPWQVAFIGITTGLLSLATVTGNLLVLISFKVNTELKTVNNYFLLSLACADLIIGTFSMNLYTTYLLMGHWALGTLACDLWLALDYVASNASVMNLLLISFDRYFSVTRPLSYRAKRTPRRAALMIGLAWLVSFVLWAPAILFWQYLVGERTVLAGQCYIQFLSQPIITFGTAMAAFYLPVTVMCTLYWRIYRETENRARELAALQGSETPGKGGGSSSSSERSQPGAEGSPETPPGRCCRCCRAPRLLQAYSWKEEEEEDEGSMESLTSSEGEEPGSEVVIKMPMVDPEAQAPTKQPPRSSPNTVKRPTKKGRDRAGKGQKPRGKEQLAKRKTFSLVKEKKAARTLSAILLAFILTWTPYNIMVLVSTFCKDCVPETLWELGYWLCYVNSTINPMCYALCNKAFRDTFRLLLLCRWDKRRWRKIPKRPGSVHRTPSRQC

[23] = biological target: Adrenergic receptor alpha-2 (Rattus norvegicus, UniProt P22086+P19328+P22909); assay: Displacement of [3H]-rauwolscine from adrenergic alpha2 receptor in rat cerebral cotex homogenates after 60 mins by liquid scintillation counting
[24] = biological target: D(1A) dopamine receptor (Rattus norvegicus, UniProt P18901); assay: Displacement of [3H]-SCH23390 from dopamine D1 receptor in rat strriatum homogenates after 20 mins by liquid scintillation counting
D(1A) dopamine receptor (Rattus norvegicus, UniProt P18901), sequence (P18901 whole entry): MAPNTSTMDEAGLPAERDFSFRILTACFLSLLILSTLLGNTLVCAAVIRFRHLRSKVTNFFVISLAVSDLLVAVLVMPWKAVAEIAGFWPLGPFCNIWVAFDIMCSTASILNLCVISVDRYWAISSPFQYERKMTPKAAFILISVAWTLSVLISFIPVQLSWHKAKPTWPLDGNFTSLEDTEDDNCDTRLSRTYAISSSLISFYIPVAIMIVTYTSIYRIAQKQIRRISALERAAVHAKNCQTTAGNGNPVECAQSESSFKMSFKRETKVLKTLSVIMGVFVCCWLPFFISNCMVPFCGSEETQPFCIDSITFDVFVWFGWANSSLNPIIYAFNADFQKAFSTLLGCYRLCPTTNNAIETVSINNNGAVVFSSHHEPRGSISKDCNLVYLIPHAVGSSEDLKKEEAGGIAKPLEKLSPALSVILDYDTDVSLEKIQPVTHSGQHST

[25] = biological target: T2, 5-hydroxytryptamine receptor 2C (Rattus norvegicus, UniProt P08909)
T2 sequence (P08909 whole entry): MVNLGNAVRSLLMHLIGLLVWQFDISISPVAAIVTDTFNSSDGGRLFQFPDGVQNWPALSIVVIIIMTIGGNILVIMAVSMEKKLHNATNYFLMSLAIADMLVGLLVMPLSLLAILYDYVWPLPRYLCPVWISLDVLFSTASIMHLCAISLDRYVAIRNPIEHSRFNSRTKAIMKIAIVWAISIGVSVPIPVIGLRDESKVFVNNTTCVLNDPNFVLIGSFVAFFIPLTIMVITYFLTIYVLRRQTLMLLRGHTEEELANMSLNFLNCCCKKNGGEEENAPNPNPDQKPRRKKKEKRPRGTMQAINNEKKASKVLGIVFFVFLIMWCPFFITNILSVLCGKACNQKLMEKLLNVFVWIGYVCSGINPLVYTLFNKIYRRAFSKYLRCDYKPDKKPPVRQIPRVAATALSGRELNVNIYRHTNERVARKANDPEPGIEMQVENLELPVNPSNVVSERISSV

[26] = test system: Rattus norvegicus; assay: Cognitive enhancing effect in Sprague-Dawley rat assessed as increase in total exploration time for novel objects in retention trial at 0.03 mg/kg, po administered 1 hr prior to acquisition trial measured 24 hrs post acquisition trial for 5 mins by novel object recognition test; assay type: functional, organism-based
[27] = biological target: Sodium-dependent dopamine transporter (Rattus norvegicus, UniProt P23977); assay: Displacement of [3H] WIN35,428 from rat striatum homogenate DAT after 8 hrs mins by liquid scintillation counting
Sodium-dependent dopamine transporter, sequence (P23977 whole entry): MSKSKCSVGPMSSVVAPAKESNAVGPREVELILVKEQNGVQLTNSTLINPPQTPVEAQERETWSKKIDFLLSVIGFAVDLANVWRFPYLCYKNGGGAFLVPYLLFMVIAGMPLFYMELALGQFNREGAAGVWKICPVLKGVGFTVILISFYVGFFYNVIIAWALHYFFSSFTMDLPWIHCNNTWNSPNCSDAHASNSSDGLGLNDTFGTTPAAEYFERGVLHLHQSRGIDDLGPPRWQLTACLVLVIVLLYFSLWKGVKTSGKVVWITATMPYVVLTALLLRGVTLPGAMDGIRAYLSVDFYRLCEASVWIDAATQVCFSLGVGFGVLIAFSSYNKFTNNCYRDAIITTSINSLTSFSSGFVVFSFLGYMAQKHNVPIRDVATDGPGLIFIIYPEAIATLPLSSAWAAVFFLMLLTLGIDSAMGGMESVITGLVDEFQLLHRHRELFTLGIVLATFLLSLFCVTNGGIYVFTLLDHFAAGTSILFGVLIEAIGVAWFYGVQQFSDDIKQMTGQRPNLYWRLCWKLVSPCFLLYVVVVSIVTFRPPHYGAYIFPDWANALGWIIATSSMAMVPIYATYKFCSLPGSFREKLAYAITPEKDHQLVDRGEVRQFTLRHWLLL

[28] = biological target: 5-hydroxytryptamine receptor 1A (Homo sapiens) (UniProt P08908); assay: Agonist activity at serotonin 5-HT1A receptor (unknown origin) expressed in HEK293 cells assessed as induction of calcium flux at 10 uM after 60 mins by calcium 4-dye based FLIPR assay relative to control; assay type: functional, cell-based
5-hydroxytryptamine receptor 1A (Homo sapiens), sequence (P08908 whole entry): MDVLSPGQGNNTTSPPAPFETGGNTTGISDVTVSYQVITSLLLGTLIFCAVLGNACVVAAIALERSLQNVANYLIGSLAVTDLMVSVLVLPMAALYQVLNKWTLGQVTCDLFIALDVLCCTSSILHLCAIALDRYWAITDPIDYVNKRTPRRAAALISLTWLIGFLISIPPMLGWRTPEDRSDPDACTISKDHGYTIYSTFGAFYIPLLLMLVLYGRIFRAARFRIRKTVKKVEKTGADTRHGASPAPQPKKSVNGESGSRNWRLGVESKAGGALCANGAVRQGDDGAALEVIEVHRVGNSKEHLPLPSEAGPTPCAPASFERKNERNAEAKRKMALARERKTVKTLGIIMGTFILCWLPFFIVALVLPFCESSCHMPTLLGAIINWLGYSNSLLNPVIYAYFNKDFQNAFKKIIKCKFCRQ

## O=C(CCCCN1CCC(c2noc3cc(F)ccc23)CC1)c1cc2c3c(c1)CCN3C(=O)CC2
[1]
  Ki: > 1000 nM
[2]
  Ki: 5.55 nM
[3]
  IC50: 2910 nM
[4]
  inhibition: 100%
[5]
  half-life: 2.15 h
[6]
  selectivity ratio: 129
[7]
  IC50: 9.02 nM
[8]
  Activity: Dose-dependent effect
[9]
  Ki: > 1000 nM
[10]
  ED50: 0.26 mg/kg
[11]
  ED50: 0.61 mg/kg
[12]
  AUC(0-t): 3140 ng·h/mL
[13]
  Cmax: 3730 ng/mL
[14]
  selectivity ratio: 302
[15]
  IC50: 25.6 nM
[16]
  IC50: 366 nM
[17]
  Ki: 0.72 nM
[18]
  Ki: 1.66 nM
[19]
  Activity: Active
[20]
  Ki: 8.6 nM
[21]
  Ki: 2.9 nM
[22]
  Ki: > 1000 nM
[23]
  Ki: > 1000 nM
[24]
  Ki: 76.9 nM
[25]
  Ki: 616 nM
[26]
  Activity: inactive
[27]
  Ki: > 1000 nM
[28]
  Activity: 8.6%
